According to patent publication EP4722363A1, “RNAI AGENT FOR INHIBITING ANGPTL3 EXPRESSION AND USE THEREOF” (YUN HO BIO CO., LTD, priority 2023, dated 2024):

Legend:
ANGPTL3 Protein [1] = assay: PHH free uptake, inhibition of ANGPTL3, ELISA of supernatant; assay type: cell-based; settings: primary human hepatocytes, 72 hours
Procedure: PHH cells were thawed and adjusted to a density of 6×10^5 cells/mL. Then, 10 µL of the compound from the dilution plate was added to the cell culture plate, resulting in final compound concentrations of 100, 40, 12.5, 5, and 2 nM. The cells were seeded into a 96-well plate at a density of 54,000 cells per well (90 µL/well), with a final culture volume of 100 µL per well. The cells were cultured in a 5% CO2 incubator at 37°C for 72 hours.
(§1) The supernatant from the PHH and PCH cultures from the previous steps was collected, transferred to a new 96-well V-bottom plate, and centrifuged. Human Angiopoietin-like 3 protein (hANGPTL3 protein; DANL30) ELISA test was performed according to the instructions of HANGPTL 3 protein Kit.
(§2) Data Analysis: Four Parameter Logistic method. This method constructs a standard curve by plotting, with the y-axis as the average absorbance of the standards and the x-axis as the concentration, drawing a best-fit curve through the points on the graph. The OD value of the log concentration of the sample's HANGPTL3 protein is determined against the best-fit line of the log concentration by regression analysis. [formula]
(§3) Sequences with good activity in Table 8 were evaluated for in vitro inhibitory activity against ANGPTL3 Protein in primary human hepatocytes (PHH) and primary cynomolgus monkey hepatocytes (PCH). Table 10. In Vitro Inhibitory Activity of MCPP-siRNAs against ANGPTL3 mRNA in PHH Cell Line

ANGPTL3 Protein [2] = assay: PCH free uptake, inhibition of ANGPTL3, ELISA of supernatant; assay type: cell-based; settings: primary cynomolgus monkey hepatocytes, 72 hours
Procedure: PCH cells were resuscitated using 10% FBS InvitroGRO™ HT Medium, and subsequently, the cell density was adjusted to 3×10^5 cells/mL using 10% FBS InvitroGRO™ CP Medium. Then, 10 µL of the compound from the dilution plate was added to the cell culture plate, resulting in final compound concentrations of 25, 5, and 1 nM. The cells were seeded into a 96-well plate at a density of 27,000 cells per well (90 µL/well), with a final culture volume of 100 µL per well. The cells were cultured in a 5% CO2 incubator at 37 °C for 72 hours.
as §1, §2, §3

ANGPTL3 [3] = assay: In vivo efficacy of ANGPTL3 GalNAc-siRNAs in hANGPTL3 humanized mice; settings: 3 mg/kg subcutaneous on day 0; days 7, 14, 21, 28; normalized to day -1; compared to the control; Fig. 1
Procedure: To evaluate the in vivo efficacy of siRNA against ANGPTL3 in mice, female ANGPTL3 humanized mice (purchased from Shanghai Model Organisms Center, Inc.) were used for in vivo efficacy testing. Mice were randomly divided into 5 groups, with 5 mice per group: G1, Control (PBS) negative control group; G2, 2002-034-001 (3 mg/kg) treatment group; G3, 2008-010-001 (3 mg/kg) treatment group; G4, 2008-019-001 (3 mg/kg) treatment group; and G5, 2008-019-002 (3 mg/kg) treatment group.
On days -7 and -1, pre-dose plasma samples were obtained after a 4-hour fast. The above siRNA conjugates were diluted with saline and administered subcutaneously to the mice according to body weight on day 0. Plasma was collected after a 4-hour fast on days 7, 14, 21, and 28, respectively. The ANGPTL3 protein level in plasma was detected by ELISA (R&D Systems). Plasma triglycerides (TG), total cholesterol (CHO), high-density lipoprotein cholesterol (HDL-c), low-density lipoprotein cholesterol (LDL-c), alanine aminotransferase (ALT), and aspartate aminotransferase (AST) were tested by Shanghai Bikai Keyi Biotechnology Co., Ltd.
To evaluate the in vivo efficacy of the siRNAs against ANGPTL3 in mice, female ANGPTL3 humanized mice (purchased from Shanghai Model Organisms Center, Inc.) were used for the efficacy study. The mice were randomly allocated into five groups (n=5 per group) as follows: • G1: Control (PBS) negative control group; • G2: 2002-034-001 (3 mg/kg) treatment group; • G3: 2008-010-001 (3 mg/kg) treatment group; • G4: 2008-019-001 (3 mg/kg) treatment group; • G5: 2008-019-002 (3 mg/kg) treatment group.
The day of the first administration was designated as day 0. Accordingly, the day before administration was designated as day -1, and the day after administration as day 1.
On day -7, all mice were fasted for 4 hours, and mandibular blood was collected to obtain plasma for hANGPTL3 protein detection. […]
On day -1, pre-dose plasma samples were obtained after a 4-hour fast. […] The ANGPTL3 protein level in plasma was detected by ELISA (R&D Systems). […]

ANGPTL3 [4] = assay: In vivo efficacy of ANGPTL3 GalNAc-siRNA in HFD-induced hyperlipidemic cynomolgus monkeys; settings: single subcutaneous injection, normalized to pre-treatment, Fig. 2
Procedure: To evaluate the in vivo activity of siRNA against ANGPTL3, 6 HFD-induced hyperlipidemic cynomolgus monkeys were used for the experiment. Pre-dose serum samples were obtained after a 4-hour fast on days -7 and -14. The siRNA conjugate was diluted with saline and administered subcutaneously according to the experimental design on day 0. Blank saline was used as a negative control. Plasma was collected after a 4-hour fast on days 0, 7, 14, 28, 42, 49, and 56. Serum triglycerides were detected using an automatic biochemical analyzer.
The ANGPTL3 protein levels and triglyceride levels for each animal were normalized. For normalization, at a given time point, the ANGPTL3 protein and triglyceride levels of each animal were divided by the pre-treatment expression level of that animal (the average of the pre-experiment samples for that group) to determine the change in "normalization to pre-treatment".

“2008-010-001: GalNAc-conjugated modified ANGPTL3 siRNA, sense SEQ ID NO 40 (3'-YHZY12001), antisense SEQ ID NO 27 (sense GAGAAGAACUACAUAUAAA; antisense UUUAUAUGUAGUUCUUCUCAG; GalNAc conjugate YHZY12001 at sense 3', chemistry not fully specified) [Duplex 2008-010-001]” was tested, and the IC50 (ANGPTL3 Protein [1]) was 0.81 nM, the “Average Inhibition in PCH %” value (ANGPTL3 Protein [2]; 1nM) was 62.75% and the “Average Inhibition in PCH %” value (ANGPTL3 Protein [2]; 5nM) was 74.73%. For the same substance, the “Average Inhibition in PCH %” value (ANGPTL3 Protein [2]; 25nM) was 78.39%, the “level of ANGPTL3 protein in the plasma” value (ANGPTL3 [3]) was “significantly reduced” and the “level of total cholesterol (CHO) in the plasma” value (ANGPTL3 [3]) was “significantly reduced”. The “level of triglycerides (TG) in the plasma” value (ANGPTL3 [3]) was “significantly reduced”, the “serum ANGPTL3 protein level” value (ANGPTL3 [4]) was “significantly inhibited” and the triglyceride level (ANGPTL3 [4]; serum) was “significantly reduced”.
